From PMC11045757, “Group 3 medulloblastoma transcriptional networks collapse under domain specific EP300/CBP inhibition” (Nature Communications, 2024)
“And” between values parts separate entries of the source, which are not always exact repeats. Identical values can stand only once. Like-named read-outs stand apart in the source and are kept apart here.

What was measured:
[1] = biological target: T1, EP300 bromodomain (Homo sapiens, UniProt Q09472); experiment: Differential scanning fluorimetry (DSF) thermal shift; type: binding; conditions: DSF
T1 construct: 6xHis (cleaved yes); host or cells: E. coli BL21 (DE3) RIL
T1 sequence (Q09472 1048-1161): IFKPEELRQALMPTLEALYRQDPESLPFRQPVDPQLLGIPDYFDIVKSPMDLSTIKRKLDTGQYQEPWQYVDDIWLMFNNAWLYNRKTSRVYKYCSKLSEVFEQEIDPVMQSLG
Method: (§1) At OD600 of 0.6, the culture was cooled down to 18 °C and induced with 0.1 mM IPTG. After 18 h growth, the culture was harvested by centrifugation at 6000 × g for 25 min and stored at -80 °C. Harvested cell pellets were re-suspended in 50 mM Na/K phosphate buffer (pH 7.4) containing 100 mM NaCl, 40 mM imidazole, 0.01% w/v lysozyme and 0.01% v/v Triton X-100 at 4 °C for 1 h, subjected to sonication and the lysate was clarified by centrifugation (30,000 × g for 45 min at 4 °C). Proteins were purified by FPLC at 4 °C using columns and chromatography materials from GE Healthcare. […] Proteins were purified to homogeneity by size exclusion chromatography using Superdex 75 equilibrated with elution buffer (50 mM HEPES pH 7.5, 100 mM NaCl, 2 mM DTT). All BRDs eluted as monomeric protein and were of crystallization grade quality (>95% purity as judged by SDS-PAGE). Pool fractions were combined, concentrated to 10–12 mg/ml, and aliquots were flash-frozen in liquid N2 and stored at −80 °C.
(§2) DSF experiments were performed with an Applied Biosystem StepOnePlus real-time PCR system (Thermo Fisher Scientific) using 96-well format plates, assayed in quadruplicate. For thermal shift determination, 5 μM protein was mixed with 100 μM compound in 50 mM HEPES, pH 7.5, 150 mM NaCl, 2 mM DTT, 2% DMSO, 5X SYPRO Orange (Thermo Fisher Scientific) in 20 μL reaction volumes. Reaction mixtures were heated from 25 to 95 °C at 1 °C/min with fluorescence readings every 0.5 °C at 610 nm. The observed thermal shift (ΔTm) was recorded as the difference between the Tm of sample and DMSO reference wells.

[2] = biological target: T2, BRD4-BD1 (BRD4-1) (Homo sapiens, UniProt O60885); experiment: as above; type: binding; conditions: DSF; for ∆Tm (°C) BRD4-1: 5 μM protein, 100 μM compound, three independent experiments, average ± SD
T2 construct: BRD4-BD1 (residues 44-168); 6xHis (cleaved yes); host or cells: E. coli BL21 (DE3) RIL
Method: as §1, §2

[3] = biological target: T3, CBP bromodomain (Homo sapiens, UniProt Q92793); experiment: as above; type: binding; conditions: for ∆Tm (°C) CBP / ΔTm (°C) CBP: DSF; for ∆Tm (°C) CBP: 5 μM protein, 100 μM compound, three independent experiments, average ± SD
T3 construct: CBP (residues 1081-1197); 6xHis (cleaved yes); host or cells: E. coli BL21 (DE3) RIL
T3 sequence (Q92793 1081-1197): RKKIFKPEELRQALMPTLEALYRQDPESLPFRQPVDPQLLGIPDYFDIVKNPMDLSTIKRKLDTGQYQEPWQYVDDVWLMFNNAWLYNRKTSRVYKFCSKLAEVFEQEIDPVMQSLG
Method: as §1, with “After” for “At OD600 of 0.6, the culture was cooled down to 18 °C and induced with 0.1 mM IPTG. After”, “All BRDs eluted as monomeric protein and were of crystallization grade quality (>95% purity as judged by SDS-PAGE).” left out
(§3) DSF experiments were performed with an Applied Biosystem StepOnePlus real-time PCR system (Thermo Fisher Scientific) using 96-well format plates, assayed in quadruplicate. For thermal shift determination, 5 μM protein was mixed with 100 μM compound in 50 mM HEPES, pH 7.5, 150 mM NaCl, 2 mM DTT, 2% DMSO, 5X SYPRO Orange (Thermo Fisher Scientific) in 20 μL reaction volumes.

[4] = tested on: CBP bromodomain; experiment: as above; type: binding; conditions: ΔTm (CBP)/ΔTm(BRD4)
Method: as §1, with “After” for “At OD600 of 0.6, the culture was cooled down to 18 °C and induced with 0.1 mM IPTG. After”, “All BRDs eluted as monomeric protein and were of crystallization grade quality (>95% purity as judged by SDS-PAGE).” left out
as §3

[5] = tested on: HDMB03 (HDMBO3) group 3 medulloblastoma cells; experiment: CellTiter-Glo dose-response growth assay; type: cell-based; conditions: HDMBO3 G3MB cell growth; read-out: IC50 (nM) HDMBO3
Method: CellTiter-Glo assay was performed as per the manufacturer’s instructions, at the noted timepoint after compound treatment or plating. For Kelly, TE617T, RhJT, NCIH2122, NCIH650 and 143B, 500 cells were plated in normal growth media per well in a 384-well plate (Corning). HDMB03 and MB002 cells were plated in growth media at 500 cells/well in a 384-well plate. […] Cells were incubated for the noted timepoints prior to performing CellTiter-Glo assay as per the manufacturer’s instructions, and reading plates on an Envision 2104 microplate reader.

[6] = biological target: GFP-tagged CBP bromodomain (Homo sapiens, UniProt Q92793); experiment: Microscale thermophoresis (MST); type: binding; conditions: for Response (Dose Response Curve): MST raw response
GFP-tagged CBP bromodomain, sequence (Q92793 1085-1192 limits assumed): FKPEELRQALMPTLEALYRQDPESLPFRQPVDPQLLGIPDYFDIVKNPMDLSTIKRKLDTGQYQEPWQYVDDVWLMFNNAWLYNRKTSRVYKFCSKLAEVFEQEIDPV
Method: MST experiments were performed in a Monolith NT.115 Pico instrument (NanoTemper Technologies) following published procedures. […] MST traces were recorded using standard parameters: 5 s MST power off, 30 s MST power on and 5 s MST power off. Measurements were taken at -1-0 s (cold region) and 10 s (hot region) and data were analyzed using the NTAnalysis software.

## COC1CCC(n2c(C3CCCC(=O)N3c3cccc(C(F)F)c3)nc3cc(-c4c(C)noc4C)ccc32)CC1 (centres unmarked) [Compound 3]
[1]; 5 μM protein, 100 μM compound, three independent experiments, average ± SD
  ∆Tm (°C) EP300: 15.2 ± 0.43 °C
[1]; Figure 3B, EP300
  ΔTm (°C) EP300: 15.2 °C
[2]
  ∆Tm (°C) BRD4-1: 5.6 ± 0.18 °C
[2]; listed as iCBP-1
  ∆Tm (°C) BRD4-1: 5.6 °C
[2]; Figure 3A, BRD4-BD1
  ΔTm (°C) BRD4-BD1: 5.6 °C
[3]
  ∆Tm (°C) CBP: 15.7 ± 0.13 °C
[3]; listed as iCBP-1
  ∆Tm (°C) CBP: 15.7 °C
[3]; Figure 3A, CBP bromodomain
  ΔTm (°C) CBP: 15.7 °C
[3]; Figure 3B, CBP
  ΔTm (°C) CBP: 15.7 °C
[3]; Figure 3C, DSF (values equal CBP column)
  DSF ΔTm (°C): 15.7 °C
[4]
  Ratio CBP/BRD4 of ∆Tm: 2.8
[5]
  IC50: 156 ± 63 nM
[6]; Dose 7.6294e-11, single replicate run, listed as iCBP-1
  Response (Dose Response Curve): 853.223 and 857.66 and 855.66
[6]; Dose 1.52588e-10, single replicate run, listed as iCBP-1
  Response (Dose Response Curve): 855.736 and 856.23 and 855.826
[6]; Dose 3.05176e-10, single replicate run, listed as iCBP-1
  Response (Dose Response Curve): 853.445 and 855.178 and 855.494
[6]; Dose 6.10352e-10, single replicate run, listed as iCBP-1
  Response (Dose Response Curve): 856.427 and 856.757 and 853.917
[6]; Dose 1.2207e-9, single replicate run, listed as iCBP-1
  Response (Dose Response Curve): 856.018 and 857.281 and 855.418
[6]; Dose 2.44141e-9, single replicate run, listed as iCBP-1
  Response (Dose Response Curve): 854.643 and 857.895 and 854.619
[6]; Dose 4.88281e-9, single replicate run, listed as iCBP-1
  Response (Dose Response Curve): 855.403 and 855.962 and 856.044
[6]; Dose 9.76563e-9, single replicate run, listed as iCBP-1
  Response (Dose Response Curve): 854.71 and 855.519 and 854.572
[6]; Dose 1.95313e-8, single replicate run, listed as iCBP-1
  Response (Dose Response Curve): 854.478 and 856.32 and 852.68
[6]; Dose 3.90625e-8, single replicate run, listed as iCBP-1
  Response (Dose Response Curve): 853.805 and 853.804 and 852.557
[6]; Dose 7.8125e-8, single replicate run, listed as iCBP-1
  Response (Dose Response Curve): 851.041 and 853.265 and 851.047
[6]; Dose 1.5625e-7, single replicate run, listed as iCBP-1
  Response (Dose Response Curve): 849.783 and 852.179 and 850.016
[6]; Dose 3.125e-7, single replicate run, listed as iCBP-1
  Response (Dose Response Curve): 847.514 and 851.349 and 849.816
[6]; Dose 6.25e-7, single replicate run, listed as iCBP-1
  Response (Dose Response Curve): 850.56 and 852.488 and 847.121
[6]; Dose 1.25e-6, single replicate run, listed as iCBP-1
  Response (Dose Response Curve): 851.062 and 851.994 and 849.472
[6]; Dose 2.5e-6, single replicate run, listed as iCBP-1
  Response (Dose Response Curve): 852.183 and 853.073 and 851.642
[6]; MST, single replicate run, target clGFP-CBPBRD, TargetConcentration 5e-8, MST-Power Medium, unit inferred, listed as iCBP-1, read-out: Kd (Fit Results, Fit Model: Kd)
  Kd: 11.6 nM and 7.49 nM and 11.5 nM
[6]; fitted MST response of bound state, single replicate run, target clGFP-CBPBRD 5e-8, listed as iCBP-1
  Bound (Fit Results): 850.224 and 852.177 and 849.456
[6]; fitted MST response of unbound state, single replicate run, target clGFP-CBPBRD 5e-8, listed as iCBP-1
  Unbound (Fit Results): 855.236 and 856.83 and 855.351
[6]; three independent MST experiments, average ± SD, read-out: Kd (nM) CBP
  Kd: 12.1 ± 4.9 nM
